Measured values as given in ChEMBL document CHEMBL4507298 (2021).

Columns and labels:
[1] = target: 5-hydroxytryptamine receptor 1E (Homo sapiens) (UniProt P28566); settings: Compound concentration 10.0 uM
[2] = target: T1, 5-hydroxytryptamine receptor 3A (Homo sapiens) (UniProt P46098); settings: Compound concentration 10.0 uM
T1 sequence (whole entry): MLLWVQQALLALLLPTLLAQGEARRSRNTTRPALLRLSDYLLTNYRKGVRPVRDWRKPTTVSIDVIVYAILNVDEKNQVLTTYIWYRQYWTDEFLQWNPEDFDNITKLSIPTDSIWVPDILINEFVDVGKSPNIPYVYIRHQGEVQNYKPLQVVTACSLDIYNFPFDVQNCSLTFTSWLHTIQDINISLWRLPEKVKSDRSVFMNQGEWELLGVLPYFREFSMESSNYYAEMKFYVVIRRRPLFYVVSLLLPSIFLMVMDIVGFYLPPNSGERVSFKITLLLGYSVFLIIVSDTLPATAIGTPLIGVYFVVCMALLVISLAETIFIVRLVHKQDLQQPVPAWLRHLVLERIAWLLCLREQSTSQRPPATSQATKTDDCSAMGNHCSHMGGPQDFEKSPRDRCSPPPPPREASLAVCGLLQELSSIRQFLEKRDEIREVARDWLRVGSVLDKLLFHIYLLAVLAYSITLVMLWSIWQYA

[3] = target: 5-hydroxytryptamine receptor 6 (Homo sapiens) (UniProt P50406); settings: Compound concentration 10.0 uM
[4] = target: D(1B) dopamine receptor (Homo sapiens) (UniProt P21918); settings: Compound concentration 10.0 uM
[5] = target: Sodium-dependent serotonin transporter (Homo sapiens) (UniProt P31645); settings: Compound concentration 10.0 uM
[6] = target: Kappa-type opioid receptor (Homo sapiens) (UniProt P41145); settings: Compound concentration 10.0 uM
[7] = target: T2, Alpha-2A adrenergic receptor (Homo sapiens) (UniProt P08913); settings: Compound concentration 10.0 uM
T2 sequence (whole entry): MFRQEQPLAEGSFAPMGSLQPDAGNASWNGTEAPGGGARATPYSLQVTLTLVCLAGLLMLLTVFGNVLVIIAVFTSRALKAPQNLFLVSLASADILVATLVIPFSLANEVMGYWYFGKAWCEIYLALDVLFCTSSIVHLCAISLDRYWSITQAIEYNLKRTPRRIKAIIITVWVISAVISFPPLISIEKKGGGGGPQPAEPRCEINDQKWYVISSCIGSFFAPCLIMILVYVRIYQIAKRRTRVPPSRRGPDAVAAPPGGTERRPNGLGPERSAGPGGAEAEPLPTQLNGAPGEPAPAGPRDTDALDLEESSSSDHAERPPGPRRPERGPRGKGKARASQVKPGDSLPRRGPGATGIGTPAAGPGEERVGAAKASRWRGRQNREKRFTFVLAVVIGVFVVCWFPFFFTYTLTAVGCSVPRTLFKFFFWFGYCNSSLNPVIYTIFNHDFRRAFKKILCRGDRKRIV

[8] = target: T3, Alpha-2C adrenergic receptor (Homo sapiens) (UniProt P18825); settings: Compound concentration 10.0 uM
T3 sequence (whole entry): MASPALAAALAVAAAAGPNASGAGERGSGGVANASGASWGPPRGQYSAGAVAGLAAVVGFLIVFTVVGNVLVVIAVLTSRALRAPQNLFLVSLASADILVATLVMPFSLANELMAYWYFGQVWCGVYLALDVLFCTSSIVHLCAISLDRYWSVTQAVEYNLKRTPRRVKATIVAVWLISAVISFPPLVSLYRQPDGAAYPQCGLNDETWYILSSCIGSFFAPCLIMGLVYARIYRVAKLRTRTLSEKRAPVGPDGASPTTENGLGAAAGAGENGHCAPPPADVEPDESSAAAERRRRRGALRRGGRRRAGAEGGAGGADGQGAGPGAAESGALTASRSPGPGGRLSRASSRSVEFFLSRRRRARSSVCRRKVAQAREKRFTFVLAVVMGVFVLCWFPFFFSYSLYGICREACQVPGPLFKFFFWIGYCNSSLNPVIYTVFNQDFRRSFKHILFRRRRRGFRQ

[9] = target: T4, Muscarinic acetylcholine receptor M2 (Homo sapiens) (UniProt P08172); settings: Compound concentration 10.0 uM
T4 sequence (whole entry): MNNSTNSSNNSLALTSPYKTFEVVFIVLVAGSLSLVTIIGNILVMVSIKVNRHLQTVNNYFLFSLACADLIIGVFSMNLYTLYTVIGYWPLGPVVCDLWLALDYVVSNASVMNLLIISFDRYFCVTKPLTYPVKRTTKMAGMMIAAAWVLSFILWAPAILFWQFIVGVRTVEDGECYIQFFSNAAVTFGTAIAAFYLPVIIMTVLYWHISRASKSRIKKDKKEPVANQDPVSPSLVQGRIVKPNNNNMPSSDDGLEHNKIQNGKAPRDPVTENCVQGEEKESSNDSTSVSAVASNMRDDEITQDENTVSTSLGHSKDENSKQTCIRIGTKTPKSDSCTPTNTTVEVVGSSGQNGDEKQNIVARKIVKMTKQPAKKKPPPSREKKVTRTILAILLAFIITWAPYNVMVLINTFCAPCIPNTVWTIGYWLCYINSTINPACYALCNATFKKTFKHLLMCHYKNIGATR

[10] = target: T5, Muscarinic acetylcholine receptor M5 (Homo sapiens) (UniProt P08912); settings: Compound concentration 10.0 uM
T5 sequence (whole entry): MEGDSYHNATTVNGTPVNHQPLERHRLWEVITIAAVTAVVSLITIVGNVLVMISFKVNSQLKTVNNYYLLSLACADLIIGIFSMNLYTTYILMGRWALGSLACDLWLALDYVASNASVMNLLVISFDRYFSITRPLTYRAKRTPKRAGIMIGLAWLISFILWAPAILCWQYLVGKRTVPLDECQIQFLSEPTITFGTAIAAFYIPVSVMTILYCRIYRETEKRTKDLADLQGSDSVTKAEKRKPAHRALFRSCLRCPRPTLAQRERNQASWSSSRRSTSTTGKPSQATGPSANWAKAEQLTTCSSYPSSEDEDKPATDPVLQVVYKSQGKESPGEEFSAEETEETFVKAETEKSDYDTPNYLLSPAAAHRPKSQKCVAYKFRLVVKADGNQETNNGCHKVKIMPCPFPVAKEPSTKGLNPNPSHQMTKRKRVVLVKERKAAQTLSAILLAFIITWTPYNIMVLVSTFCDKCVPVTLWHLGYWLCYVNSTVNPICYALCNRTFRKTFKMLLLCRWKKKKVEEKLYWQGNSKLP

[11] = target: GABA-A receptor; anion channel (Rattus norvegicus) (UniProt O09028+P15431+P18506+P18508+P19969+P20236+P23574+P23576+P28471+P28473+P30191+P62813+P63079+P63138+Q91ZM7+Q9ES14); settings: Compound concentration 10.0 uM
[12] = target: Tyrosine-protein kinase JAK1 (Homo sapiens) (UniProt P23458); settings: Compound concentration 1000.0 nM
Sequence of Tyrosine-protein kinase JAK1 (Homo sapiens) (P23458 whole entry): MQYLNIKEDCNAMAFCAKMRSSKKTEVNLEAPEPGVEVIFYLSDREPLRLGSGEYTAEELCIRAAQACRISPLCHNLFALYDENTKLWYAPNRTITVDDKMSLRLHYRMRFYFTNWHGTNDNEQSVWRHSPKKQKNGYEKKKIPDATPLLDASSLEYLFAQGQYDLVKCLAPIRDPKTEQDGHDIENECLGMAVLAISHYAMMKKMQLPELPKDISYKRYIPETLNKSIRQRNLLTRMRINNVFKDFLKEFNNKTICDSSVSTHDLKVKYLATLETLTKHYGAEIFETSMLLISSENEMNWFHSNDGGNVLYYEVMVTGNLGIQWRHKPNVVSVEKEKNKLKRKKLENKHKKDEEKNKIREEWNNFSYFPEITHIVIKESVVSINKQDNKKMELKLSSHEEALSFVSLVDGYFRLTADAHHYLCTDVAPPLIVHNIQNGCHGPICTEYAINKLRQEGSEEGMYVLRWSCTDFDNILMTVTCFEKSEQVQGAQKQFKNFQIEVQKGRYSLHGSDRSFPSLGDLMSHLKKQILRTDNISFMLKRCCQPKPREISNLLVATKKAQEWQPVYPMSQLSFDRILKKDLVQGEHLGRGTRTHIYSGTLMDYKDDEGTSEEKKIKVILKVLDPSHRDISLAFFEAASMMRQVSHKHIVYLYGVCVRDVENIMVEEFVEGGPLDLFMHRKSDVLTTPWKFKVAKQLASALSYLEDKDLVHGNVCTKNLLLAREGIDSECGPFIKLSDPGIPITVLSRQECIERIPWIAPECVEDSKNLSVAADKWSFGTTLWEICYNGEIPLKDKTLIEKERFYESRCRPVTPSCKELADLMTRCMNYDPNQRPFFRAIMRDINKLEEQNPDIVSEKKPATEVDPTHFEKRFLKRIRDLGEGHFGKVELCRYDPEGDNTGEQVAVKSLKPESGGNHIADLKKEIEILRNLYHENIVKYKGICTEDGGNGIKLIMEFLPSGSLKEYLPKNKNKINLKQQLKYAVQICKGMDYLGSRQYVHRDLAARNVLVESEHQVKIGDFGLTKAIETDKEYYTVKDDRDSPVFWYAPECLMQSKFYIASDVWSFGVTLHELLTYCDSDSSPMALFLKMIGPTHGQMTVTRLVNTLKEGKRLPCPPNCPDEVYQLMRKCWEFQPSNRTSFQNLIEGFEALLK

Sequence of 5-hydroxytryptamine receptor 6 (Homo sapiens) (P50406 whole entry): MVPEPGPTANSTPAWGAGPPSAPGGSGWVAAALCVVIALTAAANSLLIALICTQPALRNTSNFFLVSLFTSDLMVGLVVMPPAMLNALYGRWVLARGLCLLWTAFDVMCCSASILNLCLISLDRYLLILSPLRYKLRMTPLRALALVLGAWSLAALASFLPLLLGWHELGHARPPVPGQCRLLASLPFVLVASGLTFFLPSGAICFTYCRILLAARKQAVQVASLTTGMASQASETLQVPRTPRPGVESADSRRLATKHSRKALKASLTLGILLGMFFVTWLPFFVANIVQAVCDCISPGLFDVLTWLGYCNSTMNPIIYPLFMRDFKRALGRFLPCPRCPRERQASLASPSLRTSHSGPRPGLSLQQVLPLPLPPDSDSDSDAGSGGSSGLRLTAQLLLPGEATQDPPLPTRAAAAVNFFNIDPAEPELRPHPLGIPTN
Sequence of 5-hydroxytryptamine receptor 1E (Homo sapiens) (P28566 whole entry): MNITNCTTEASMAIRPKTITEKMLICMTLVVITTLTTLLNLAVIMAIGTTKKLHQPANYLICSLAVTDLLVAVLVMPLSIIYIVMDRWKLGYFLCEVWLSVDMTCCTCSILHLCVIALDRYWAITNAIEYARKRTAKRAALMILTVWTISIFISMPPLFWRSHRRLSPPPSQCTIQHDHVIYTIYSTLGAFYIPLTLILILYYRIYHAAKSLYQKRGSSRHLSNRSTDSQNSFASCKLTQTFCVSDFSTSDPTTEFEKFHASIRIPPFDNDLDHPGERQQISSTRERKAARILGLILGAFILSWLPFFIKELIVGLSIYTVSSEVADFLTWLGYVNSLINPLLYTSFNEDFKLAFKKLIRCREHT
Sequence of Kappa-type opioid receptor (Homo sapiens) (P41145 whole entry): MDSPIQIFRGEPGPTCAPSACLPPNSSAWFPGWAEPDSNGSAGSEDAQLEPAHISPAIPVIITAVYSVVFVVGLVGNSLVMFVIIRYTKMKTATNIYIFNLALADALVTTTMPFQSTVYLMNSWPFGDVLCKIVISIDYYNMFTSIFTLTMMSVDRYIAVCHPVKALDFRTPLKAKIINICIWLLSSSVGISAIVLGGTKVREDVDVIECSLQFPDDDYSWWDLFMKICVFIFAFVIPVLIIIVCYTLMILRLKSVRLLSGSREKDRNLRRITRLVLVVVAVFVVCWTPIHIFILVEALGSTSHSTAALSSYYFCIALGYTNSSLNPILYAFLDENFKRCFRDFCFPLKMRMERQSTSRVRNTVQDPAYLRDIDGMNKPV
Sequence of D(1B) dopamine receptor (Homo sapiens) (P21918 whole entry): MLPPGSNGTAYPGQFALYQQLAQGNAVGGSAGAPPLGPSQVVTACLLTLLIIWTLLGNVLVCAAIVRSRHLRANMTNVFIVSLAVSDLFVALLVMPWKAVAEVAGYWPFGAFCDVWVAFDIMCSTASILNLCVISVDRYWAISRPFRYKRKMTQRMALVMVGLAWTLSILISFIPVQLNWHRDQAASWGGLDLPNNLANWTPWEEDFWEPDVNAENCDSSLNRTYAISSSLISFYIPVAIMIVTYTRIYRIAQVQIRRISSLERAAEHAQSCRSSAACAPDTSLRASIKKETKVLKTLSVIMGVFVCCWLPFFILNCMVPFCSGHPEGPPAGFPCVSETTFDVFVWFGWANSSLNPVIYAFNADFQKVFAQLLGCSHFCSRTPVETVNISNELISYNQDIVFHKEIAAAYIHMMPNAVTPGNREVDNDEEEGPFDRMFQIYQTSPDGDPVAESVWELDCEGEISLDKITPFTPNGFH
Sequence of Sodium-dependent serotonin transporter (Homo sapiens) (P31645 whole entry, looked up): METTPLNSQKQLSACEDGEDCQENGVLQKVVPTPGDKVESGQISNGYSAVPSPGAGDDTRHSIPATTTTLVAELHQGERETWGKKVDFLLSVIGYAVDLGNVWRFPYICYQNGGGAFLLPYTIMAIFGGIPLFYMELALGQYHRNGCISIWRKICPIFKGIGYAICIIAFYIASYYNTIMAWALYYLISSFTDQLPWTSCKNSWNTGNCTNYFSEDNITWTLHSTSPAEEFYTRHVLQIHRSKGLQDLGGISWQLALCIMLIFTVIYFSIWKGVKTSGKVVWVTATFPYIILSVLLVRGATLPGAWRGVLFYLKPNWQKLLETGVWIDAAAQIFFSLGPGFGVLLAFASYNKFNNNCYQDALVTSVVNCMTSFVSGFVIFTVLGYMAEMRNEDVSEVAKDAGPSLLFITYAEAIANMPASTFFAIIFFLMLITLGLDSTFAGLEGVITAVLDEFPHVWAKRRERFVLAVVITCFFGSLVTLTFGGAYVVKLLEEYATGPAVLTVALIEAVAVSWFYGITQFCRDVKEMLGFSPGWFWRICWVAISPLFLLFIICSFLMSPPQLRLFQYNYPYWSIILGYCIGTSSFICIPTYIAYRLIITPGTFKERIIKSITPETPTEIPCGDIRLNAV

O=C(c1ccc(F)cc1)N1CC(COc2ccc(Br)cc2)(C(=O)O)C1 [PF-04475866]
inactive: inhibition [1] 12.2% | inhibition [2] 16.6% | inhibition [3] -2.64% | inhibition [4] 2.2% | inhibition [5] -6.29% | inhibition [6] -9.45% | inhibition [7] 14.2% | inhibition [8] 11.3% | inhibition [9] 26.7% | inhibition [10] -0.33% | inhibition [11] -5.33%

COc1ccc2cc(OCC3(C(=O)O)CN(C(=O)c4ccc(F)cc4)C3)ccc2c1 [PF-04418948]
inactive: residual activity [12] 96% | inhibition [1] 11% | inhibition [2] 0.08% | inhibition [3] -6.47% | inhibition [4] -2.51% | inhibition [5] -6.83% | inhibition [6] 16.4% | inhibition [7] 21.8% | inhibition [8] 9.72% | inhibition [9] 16.7% | inhibition [10] -7.44% | inhibition [11] 18.7%
